Source: publication PMC6123788, “Down-regulation of cathepsin S and matrix metalloproteinase-9 via Src, a non-receptor tyrosine kinase, suppresses triple-negative breast cancer growth and metastasis” (Experimental & Molecular Medicine, 2018)

Key:
Type in all cases: biochemical
CTSS [1] = target: T1, CTSS (Homo sapiens, UniProt P25774); assay: fluorometric CTSS screening kit (BioVision K149), positive control
CTSS [2] = target: T1, CTSS; assay: fluorometric CTSS screening kit (BioVision K149), AFC substrate
Src [3] = target: T2, Src (Homo sapiens, UniProt P12931); assay: CycLex c-Src kinase assay (IC90); supported by DARTS in MDA-MB-231 lysate
T2 construct: recombinant catalytic domain of c-Src

CTSS [4] = target: T1, CTSS; assay: fluorometric CTSS screening kit (BioVision K149), AFC substrate; remark: listed apart in the source
Src [5] = target: T2, Src; assay: CycLex c-Src kinase assay (IC90)

T1 sequence (P25774 115-331): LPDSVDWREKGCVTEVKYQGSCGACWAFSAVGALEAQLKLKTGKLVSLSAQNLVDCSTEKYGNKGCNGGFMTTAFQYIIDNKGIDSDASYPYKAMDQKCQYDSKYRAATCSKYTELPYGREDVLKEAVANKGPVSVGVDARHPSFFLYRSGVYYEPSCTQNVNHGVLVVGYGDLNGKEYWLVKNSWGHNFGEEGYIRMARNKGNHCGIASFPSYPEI
T2 sequence (P12931 254-536 limits assumed): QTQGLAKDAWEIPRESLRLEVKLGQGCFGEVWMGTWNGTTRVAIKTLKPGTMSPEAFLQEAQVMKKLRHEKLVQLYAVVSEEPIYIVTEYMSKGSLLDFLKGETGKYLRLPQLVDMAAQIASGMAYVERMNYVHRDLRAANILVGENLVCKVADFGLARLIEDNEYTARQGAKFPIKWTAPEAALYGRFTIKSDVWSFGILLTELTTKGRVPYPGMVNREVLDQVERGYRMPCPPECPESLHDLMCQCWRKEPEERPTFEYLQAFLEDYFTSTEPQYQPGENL

CC(C)C[C@H](NC(=O)[C@H](Cc1ccccc1)NC(=O)OCc1ccccc1)C(=O)C=O [Z-FL-COCHO]
IC50 (CTSS [1]): 0.00019 µM

Cc1nc2[nH]c(=O)[nH]c2c(C)c1O [BJ-2304]
fluorometric CTSS screening kit (BioVision K149), AFC substrate (CTSS [2]): BJ-2302 exhibited the strongest suppression of CTSS activity (Fig. 3b), followed by BJ-2304

Cc1nc2c(c(C)c1O)CC(=O)N2 [BJ-2302]
IC90 (Src [3]): 3.2 µM | IC50 (CTSS [4]): 5.1 µM

COc1ccc(Cl)c(Nc2ncnc3cc(OCC4CCN(C)CC4)c(OC)cc23)c1 [AZM-475271]
IC90 (Src [5]): 27.3 µM
